In US10993999B2, “Materials and methods for producing improved lentiviral vector particles” (IMMUNE DESIGN CORP., priority 2012, dated 2021):
Read-outs that look alike come from different tables or passages of the source.

System: PBMC-derived human dendritic cells
Type: cell-based

Cc1cn([C@H]2C[C@H](N=[N+]=[N-])[C@@H](CO)O2)c(=O)[nH]c1=O [AZT]
effect of reverse-transcriptase inhibitor on transduction (integration-deficient VSV-G-pseudotyped particles, 200 ng p24): inhibited

Cc1ccnc2c1NC(=O)c1cccnc1N2C1CC1 [Nevirapine]
effect of reverse-transcriptase inhibitor on transduction (integration-competent VSV-G-pseudotyped particles, 20 ng p24): inhibited

B1: Vpx: SIVmac Vpx protein (SEQ ID NO: 44), SAMHD1 inhibitor packaged into the lentivirus particles (protein)
chain: MSDPRERIPPGNSGEETIGEAFEWLNRTVEEINREAVNHLPRELIFQVWQRSWEYWHDEQGMSQSYVKYRYLCLMQKALFMHCKKGCRCLGEGHGAGGWRPGPPPPPPPGLA
modifications: Simian immunodeficiency virus
role of Vpx in transduction of human dendritic cells (integration-competent VSV-G-pseudotyped lentiviral vector particles): enhanced
role of Vpx in transduction of human dendritic cells (integration-deficient VSV-G-pseudotyped lentiviral particles): required
